This is an account of results in patent publication US12018016B2, “Aryl sulfonyl (hydroxy) piperidines as CCR6 inhibitors” (CHEMOCENTRYX, INC., priority 2021, dated 2024).

This test deals with T1, human CCR6 (Homo sapiens, UniProt P51684).
T1 construct: expressed in transfected cells; host or cells: Ba/F3 cells (mouse pro-B line)
T1 sequence (P51684 1-374): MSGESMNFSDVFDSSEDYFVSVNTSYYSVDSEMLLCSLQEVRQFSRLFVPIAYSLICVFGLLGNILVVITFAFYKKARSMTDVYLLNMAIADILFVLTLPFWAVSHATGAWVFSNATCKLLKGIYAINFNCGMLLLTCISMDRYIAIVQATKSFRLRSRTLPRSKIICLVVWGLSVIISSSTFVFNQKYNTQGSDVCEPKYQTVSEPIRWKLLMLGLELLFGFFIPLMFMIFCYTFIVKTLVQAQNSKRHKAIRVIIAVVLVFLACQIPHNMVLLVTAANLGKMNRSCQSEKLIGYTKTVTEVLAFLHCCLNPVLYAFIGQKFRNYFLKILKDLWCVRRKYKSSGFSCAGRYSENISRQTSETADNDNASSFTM
Put plainly: Migration assay (chemotaxis, ChemoTX). It is filed as cell-based. To be noted: hCCR6-transfected Ba/F3 cells in human serum, migration to recombinant human CCL20 10 nM, 37° C. 45 minutes; read-out: Potency (IC50 value in the migration assay). From the text:
A chemotaxis assay can be used to determine the efficacy of potential receptor antagonists at blocking the migration mediated through chemokine receptors, such as CCR6. This assay is routinely performed using the ChemoTX® microchamber system with a 5-μm pore-sized polycarbonate membrane. Chemokine receptor-expressing cells are required for such an assay. In this case, Ba/F3 cells (Palacios et al., Nature, 309:126, 1984) transfected with the gene for human CCR6 under control of the CMV promotor were used. To begin such an assay, hCCR6-transfected Ba/F3 cells are first grown for 24 hr in medium supplemented with sodium butyrate, which increases CCR6 transcription via the CMV promotor. The prepared Ba/F3 cells, are collected by centrifugation at 400×g at room temperature, then suspended at 4 million/ml in human serum. The compound being tested is serially diluted from a maximum final concentration of 1 μM (or an equivalent volume of its solvent (DMSO)) and is then added to the cell/serum mixture. Separately, recombinant human CCL20 (MIP-3α/LARC) at its EC50 concentration (10 nM) is placed in the lower wells of the ChemoTX® plate. The 5-μm (pore size) polycarbonate membrane is placed onto the plate, and 20 μL of the cell/compound mixture is transferred onto each well of the membrane. The plates are incubated at 37° C. for 45 minutes, after which the polycarbonate membranes are removed and 5 μl of the DNA-intercalating dye CyQUANT (Invitrogen, Carlsbad, CA) is added to the lower wells. The amount of fluorescence, corresponding to the number of migrated cells, is measured using a Spectrafluor Plus plate reader (TECAN, San Jose, CA).

On to `CN1CCN(c2cncc(-c3ccc(S(=O)(=O)N4CC[C@@H](Nc5ccc(C(F)(F)F)cn5)[C@@H](O)C4)cc3)c2)CC1` [Compound 108], for which the IC50 was < 1 nM.

With `O=S(=O)(c1ccc(-c2ccc(N3CCC(O)CC3)nc2)cc1)N1CC[C@@H](Nc2ccc(C(F)(F)F)cn2)[C@@H](O)C1` [Compound 171], the IC50 was < 1 nM.

For `O=C1NCCc2ccc(-c3ccc(S(=O)(=O)N4CC[C@@H](Nc5ccc(C(F)(F)F)cn5)[C@@H](O)C4)cc3)cc21` [Example 3, 7-(4-(((3S,4R)-3-hydroxy-4-((5-(trifluoromethyl)pyridin-2-yl)amino)piperidin-1-yl)sulfonyl)phenyl)-3,4-dihydroisoquinolin-1(2H)-one], the IC50 is < 1 nM.

With `COc1cc(-c2ccc(S(=O)(=O)N3CC[C@@H](Nc4ccc(C(F)(F)F)cn4)[C@@H](O)C3)cc2)cc2c(C#N)n[nH]c12` [Compound 122], the IC50 is < 1 nM.

Regarding `COc1cc(-c2ccc(S(=O)(=O)N3CC[C@@H](Nc4ccc(C(F)(F)F)cn4)[C@@H](O)C3)cc2)cc2cn[nH]c(=O)c12` [Compound 79, 6-(4-(((3S,4R)-3-hydroxy-4-((5-(trifluoromethyl)pyridin-2-yl)amino)piperidin-1-yl)sulfonyl)phenyl)-8-methoxyphthalazin-1(2H)-one], the IC50 is < 1 nM.

As for `O=S(=O)(c1ccc(-c2ccnc(-c3ncc[nH]3)c2)cc1)N1CC[C@@H](Nc2ccc(C(F)(F)F)cn2)[C@@H](O)C1` [Example 52, (3S,4R)-1-((4-(2-(1H-imidazol-2-yl)pyridin-4-yl)phenyl)sulfonyl)-4-((5-(trifluoromethyl)pyridin-2-yl)amino)piperidin-3-ol], the IC50 was < 1 nM.

Turning to `Cc1cc(-c2ccc(S(=O)(=O)N3CC[C@@H](Nc4ccc(C(F)(F)F)cn4)[C@@H](O)C3)cc2)cc2c1CN(C(=O)N(C)C)C2` [Compound 80, 6-(4-(((3S,4R)-3-hydroxy-4-((5-(trifluoromethyl)pyridin-2-yl)amino)piperidin-1-yl)sulfonyl)phenyl)-N,N,4-trimethylisoindoline-2-carboxamide], the IC50 was < 1 nM.

In the case of `O=S(=O)(c1ccc(-c2ccnc(N3CCC3)c2)cc1)N1CC[C@@H](Nc2ccc(C(F)(F)F)cn2)[C@@H](O)C1` [Compound 139], the IC50 is < 1 nM.

Consider `O=S(=O)(c1ccc(-c2ccnc(N3CC[C@@H](O)C3)c2)cc1)N1CC[C@@H](Nc2ccc(C(F)(F)F)cn2)[C@@H](O)C1` [Compound 134], for which the IC50 was < 1 nM.

In the case of `Cc1cc(C(N)=O)ncc1-c1ccc(S(=O)(=O)N2CC[C@@H](Nc3ccc(C(F)(F)F)cn3)[C@@H](O)C2)cc1` [Compound 147], the IC50 was < 1 nM.

In the case of `O=S(=O)(c1ccc(-c2ccnc(-c3nnco3)c2)cc1)N1CC[C@@H](Nc2ccc(C(F)(F)F)cn2)[C@@H](O)C1` [Compound 68, (3S,4R)-1-((4-(2-(1,3,4-oxadiazol-2-yl)pyridin-4-yl)phenyl)sulfonyl)-4-((5-(trifluoromethyl)pyridin-2-yl)amino)piperidin-3-ol], the IC50 was < 1 nM.

Consider `N#Cc1n[nH]c2c(F)cc(-c3ccc(S(=O)(=O)N4CC[C@@H](Nc5ccc(C(F)(F)F)cn5)[C@@H](O)C4)cc3)cc12` [Compound 77, 7-fluoro-5-(4-(((3S,4R)-3-hydroxy-4-((5-(trifluoromethyl)pyridin-2-yl)amino)piperidin-1-yl)sulfonyl)phenyl)-1H-indazole-3-carbonitrile], for which the IC50 is < 1 nM.

For `O=S(=O)(c1ccc(-c2ccnc(N3CC(O)C3)c2)cc1)N1CC[C@@H](Nc2ccc(C(F)(F)F)cn2)[C@@H](O)C1` [Compound 137], the IC50 was < 1 nM.

With `CN(C)[C@H]1C[C@@H](Nc2ccc(-c3ccc(S(=O)(=O)N4CC[C@@H](Nc5ccc(C(F)(F)F)cn5)[C@@H](O)C4)cc3)cn2)C1` [Compound 96], the IC50 is < 1 nM.

Regarding `O=S(=O)(c1ccc(-c2ccc3[nH]ncc3c2)cc1)N1CC[C@@H](Nc2ccc(C(F)(F)F)cn2)[C@@H](O)C1` [Example 23, (3S,4R)-1-((4-(1H-indazol-5-yl)phenyl)sulfonyl)-4-((5-(trifluoromethyl)pyridin-2-yl)amino)piperidin-3-ol], the IC50 was < 1 nM.

With `Cc1cnc(C#N)c(C)c1-c1ccc(S(=O)(=O)N2CC[C@@H](Nc3ccc(C(F)(F)F)cn3)[C@@H](O)C2)cc1` [Compound 75, 4-(4-(((3S,4R)-3-hydroxy-4-((5-(trifluoromethyl)pyridin-2-yl)amino)piperidin-1-yl)sulfonyl)phenyl)-3,5-dimethylpicolinonitrile], the IC50 is < 1 nM.

On to `Cc1cc2[nH]ncc2cc1-c1ccc(S(=O)(=O)N2CC[C@@H](Nc3ccc(C(F)(F)F)cn3)[C@@H](O)C2)cc1` [Example 25, (3S,4R)-1-((4-(6-methyl-1H-indazol-5-yl)phenyl)sulfonyl)-4-((5-(trifluoromethyl)pyridin-2-yl)amino)piperidin-3-ol], for which the IC50 is 1 to 10 nM.

Regarding `NC(=O)c1cc(-c2ccc(S(=O)(=O)N3CC[C@@H](Nc4ccc(C(F)(F)F)cn4)[C@@H](O)C3)cc2)ccn1` [Example 31, 4-(4-(((3S,4R)-3-hydroxy-4-((5-(trifluoromethyl)pyridin-2-yl)amino)piperidin-1-yl)sulfonyl)phenyl)picolinamide], the IC50 is < 1 nM.

Consider `Cc1noc(-c2cc(-c3ccc(S(=O)(=O)N4CC[C@@H](Nc5ccc(C(F)(F)F)cn5)[C@@H](O)C4)cc3)ccn2)n1` [Compound 66, (3S,4R)-1-((4-(2-(3-methyl-1,2,4-oxadiazol-5-yl)pyridin-4-yl)phenyl)sulfonyl)-4-((5-(trifluoromethyl)pyridin-2-yl)amino)piperidin-3-ol], for which the IC50 is 1 to 10 nM.

As for `Cc1cnc(C(N)=O)cc1-c1ccc(S(=O)(=O)N2CC[C@@H](Nc3ccc(C(F)(F)F)cn3)[C@@H](O)C2)cc1` [Example 20, 4-(4-(((3S,4R)-3-Hydroxy-4-((5-(trifluoromethyl)pyridin-2-yl)amino)piperidin-1-yl)sulfonyl)phenyl)-5-methylpicolinamide], the IC50 was < 1 nM.

`Cc1c(-c2ccc(S(=O)(=O)N3CC[C@@H](Nc4ccc(C(F)(F)F)cn4)[C@@H](O)C3)cc2)ccc2[nH]nc(C#N)c12` [Example 35, 5-(4-(((3S,4R)-3-hydroxy-4-((5-(trifluoromethyl)pyridin-2-yl)amino)piperidin-1-yl)sulfonyl)phenyl)-4-methyl-1H-indazole-3-carbonitrile]: the IC50 was < 1 nM.

On to `N[C@H]1C[C@@H](Nc2cc(-c3ccc(S(=O)(=O)N4CC[C@@H](Nc5ccc(C(F)(F)F)cn5)[C@@H](O)C4)cc3)ccn2)C1` [Compound 129], for which the IC50 was < 1 nM.

In the case of `NC(=O)Cc1cc(-c2ccc(S(=O)(=O)N3CC[C@@H](Nc4ccc(C(F)(F)F)cn4)[C@@H](O)C3)cc2)ccn1` [Compound 207], the IC50 is 1 to 10 nM.

On to `O=S(=O)(c1ccc(-c2ccc(N3CCCC3)nc2)cc1)N1CC[C@@H](Nc2ccc(C(F)(F)F)cn2)[C@@H](O)C1` [Compound 172], for which the IC50 is < 1 nM.

In the case of `Cc1nc2[nH]cc(C#N)c2cc1-c1ccc(S(=O)(=O)N2CC[C@@H](Nc3ccc(C(F)(F)F)cn3)[C@@H](O)C2)cc1` [Example 46, 5-(4-(((3S,4R)-3-hydroxy-4-((5-(trifluoromethyl)pyridin-2-yl)amino)piperidin-1-yl)sulfonyl)phenyl)-6-methyl-1H-pyrrolo[2,3-b]pyridine-3-carbonitrile], the IC50 was < 1 nM.

For the compound `O=C1Nc2ncc(-c3ccc(S(=O)(=O)N4CC[C@@H](Nc5ccc(C(F)(F)F)cn5)[C@@H](O)C4)cc3)cc2C12CCC2` [Compound 159], the IC50 is < 1 nM.

Turning to `Cc1c[nH]c(-c2cc(-c3ccc(S(=O)(=O)N4CC[C@@H](Nc5ccc(C(F)(F)F)cn5)[C@@H](O)C4)cc3)ccn2)n1` [Compound 215], the IC50 lay within 1 to 10 nM.

As for `COc1c(-c2ccc(S(=O)(=O)N3CC[C@@H](Nc4ccc(C(F)(F)F)cn4)[C@@H](O)C3)cc2)ccnc1C` [Compound 157], the IC50 was < 1 nM.

Take `O=S(=O)(c1ccc(-c2ccnc(N3CCNCC3)c2)cc1)N1CC[C@@H](Nc2ccc(C(F)(F)F)cn2)[C@@H](O)C1` [Compound 158]: the IC50 lay within 1 to 10 nM.

For the compound `COc1cc(-c2ccc(S(=O)(=O)N3CC[C@@H](Nc4ccc(C(F)(F)F)cn4)[C@@H](O)C3)cc2)cc2c1NC(=O)C2` [Example 15, 5-(4-(((3S,4R)-3-hydroxy-4-((5-(trifluoromethyl)pyridin-2-yl)amino)piperidin-1-yl)sulfonyl)phenyl)-7-methoxyindolin-2-one], the IC50 is < 1 nM.
